Measured values as given in PubChem BioAssay (NCI).
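Method: 48-hour compound exposure of cells in 96-well plates, five concentrations, linear interpolation of endpoints. GI50 is the concentration that inhibits growth by half. The concentration for full growth arrest is given as TGI.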

Assays:
Assay in all cases: DTP human tumour cell line panel, 48 h
[1] = tested on: SF-268 CNS
[2] = tested on: CAKI-1 renal
[3] = tested on: LOX IMVI melanoma
[4] = tested on: HS 578T breast
[5] = tested on: UACC-62 melanoma
[6] = tested on: HCC-2998 colon
[7] = tested on: NCI-H522 lung
[8] = tested on: SF-539 CNS
[9] = tested on: BT-549 breast
[10] = tested on: OVCAR-5 ovarian
[11] = tested on: RPMI-8226 leukemia
[12] = tested on: EKVX NSCLC
[13] = tested on: SK-OV-3 ovarian
[14] = tested on: NCI/ADR-RES ovarian
[15] = tested on: KM12 colon
[16] = tested on: SN12C renal
[17] = tested on: K-562 leukemia
[18] = tested on: MALME-3M melanoma
[19] = tested on: HCT-15 colon
[20] = tested on: A498 renal
[21] = tested on: NCI-H226 lung
[22] = tested on: CCRF-CEM leukemia
[23] = tested on: U251 CNS
[24] = tested on: 786-0 renal
[25] = tested on: SR leukemia
[26] = tested on: NCI-H460 lung
[27] = tested on: COLO 205 colon
[28] = tested on: OVCAR-4 ovarian
[29] = tested on: SNB-19 CNS
[30] = tested on: SF-295 CNS
[31] = tested on: SK-MEL-2 melanoma
[32] = tested on: UO-31 renal
[33] = tested on: SNB-75 CNS
[34] = tested on: T-47D breast
[35] = tested on: MCF7 breast
[36] = tested on: IGROV1 ovarian
[37] = tested on: RXF 393 renal
[38] = tested on: SW-620 colon
[39] = tested on: A549 NSCLC
[40] = tested on: PC-3 prostate
[41] = tested on: DU-145 prostate
[42] = tested on: MDA-MB-231 breast
[43] = tested on: ACHN renal
[44] = tested on: MDA-MB-435
[45] = tested on: TK-10 renal
[46] = tested on: HL-60(TB) leukemia
[47] = tested on: M14 melanoma
[48] = tested on: HT29 colon
[49] = tested on: MOLT-4 leukemia
[50] = tested on: NCI-H23 lung
[51] = tested on: HOP-62 NSCLC
[52] = tested on: HOP-92 NSCLC
[53] = tested on: SK-MEL-28 melanoma
[54] = tested on: HCT-116 colon
[55] = tested on: UACC-257 melanoma
[56] = tested on: SK-MEL-5 melanoma
[57] = tested on: OVCAR-8 ovarian

Work on N#Cc1ncc(N2C(=O)C3(CCC3)N(c3ccc(OC4CCNCC4)nc3)C2=S)cc1C(F)(F)F yielded a GI50 [1] of 18.6 µM, a TGI [1] of 43.2 µM and a GI50 [2] of 14 µM. It also gave a TGI [2] of 28.9 µM, a GI50 [3] of 11.2 µM and a TGI [3] of 24 µM. The GI50 [4] was 15.9 µM, the TGI [4] was 41.5 µM and the GI50 [5] was 15.9 µM. For the same compound, the TGI [5] was 31.5 µM, the GI50 [6] was 15.6 µM and the TGI [6] was 31.2 µM. The GI50 [7] was 18.1 µM, the TGI [7] was 35.5 µM and the GI50 [8] was 15.4 µM. The TGI [8] was 30 µM, the GI50 [9] was 12.9 µM and the TGI [9] was 26 µM. The GI50 [10] was 17.3 µM, the TGI [10] was 46.8 µM and the GI50 [11] was 11.5 µM. It also gave a TGI [11] of 32 µM, a GI50 [12] of 18 µM and a TGI [12] of 46.4 µM. The GI50 [13] was 60.5 µM, the TGI [13] was > 100 µM and the GI50 [14] was 25.2 µM. It also gave a TGI [14] of 81.9 µM, a GI50 [15] of 18.5 µM and a TGI [15] of 37 µM. For the same compound, the GI50 [16] was 15.8 µM, the TGI [16] was 36 µM and the GI50 [17] was 5.84 µM. The TGI [17] was 34.4 µM, the GI50 [18] was 13.2 µM and the TGI [18] was 27.6 µM. For the same compound, the GI50 [19] was 13.1 µM, the TGI [19] was 27.8 µM and the GI50 [20] was 12.2 µM. It also gave a TGI [20] of 32.7 µM, a GI50 [21] of 15.7 µM and a TGI [21] of 34 µM. For the same compound, the GI50 [22] was 13.5 µM, the TGI [22] was 39.1 µM and the GI50 [23] was 20.2 µM. For the same compound, the TGI [23] was 48.7 µM, the GI50 [24] was 13.6 µM and the TGI [24] was 26.8 µM. It also gave a GI50 [25] of 3.37 µM, a TGI [25] of 21.1 µM and a GI50 [26] of 16.8 µM. It also gave a TGI [26] of 31.7 µM, a GI50 [27] of 14.2 µM and a TGI [27] of 28.3 µM. For the same compound, the GI50 [28] was 18.2 µM, the TGI [28] was 44.4 µM and the GI50 [29] was 36.8 µM. For the same compound, the TGI [29] was > 100 µM, the GI50 [30] was 16.1 µM and the TGI [30] was 31.5 µM. It also gave a GI50 [31] of 15.1 µM, a TGI [31] of 30.5 µM and a GI50 [32] of 11 µM. It also gave a TGI [32] of 23.3 µM, a GI50 [33] of 15.4 µM and a TGI [33] of 50.1 µM. The GI50 [34] was 12.2 µM, the TGI [34] was 49.6 µM and the GI50 [35] was 11.5 µM. For the same compound, the TGI [35] was 26.4 µM, the GI50 [36] was 17.1 µM and the TGI [36] was 36.3 µM. It also gave a GI50 [37] of 12.1 µM, a TGI [37] of 25.8 µM and a GI50 [38] of 14.7 µM. The TGI [38] was 29.5 µM, the GI50 [39] was 27.7 µM and the TGI [39] was > 100 µM. It also gave a GI50 [40] of 13.9 µM, a TGI [40] of 28.9 µM and a GI50 [41] of 18.8 µM. The TGI [41] was 41.1 µM, the GI50 [42] was 16.4 µM and the TGI [42] was 33.6 µM. The GI50 [43] was 17.7 µM, the TGI [43] was 32 µM and the GI50 [44] was 15.8 µM. For the same compound, the TGI [44] was 31.3 µM, the GI50 [45] was 17.9 µM and the TGI [45] was 39.1 µM. The GI50 [46] was 12.1 µM, the TGI [46] was 33.9 µM and the GI50 [47] was 7.31 µM. The TGI [47] was 20.6 µM, the GI50 [48] was 8.92 µM and the TGI [48] was 29.9 µM. It also gave a GI50 [49] of 13.1 µM, a TGI [49] of 42 µM and a GI50 [50] of 13.9 µM. The TGI [50] was 32.1 µM, the GI50 [51] was 25.2 µM and the TGI [51] was 67.4 µM. The GI50 [52] was 1.11 µM, the TGI [52] was 10.5 µM and the GI50 [53] was 13.8 µM. The TGI [53] was 27.4 µM, the GI50 [54] was 11.7 µM and the TGI [54] was 24.4 µM. It also gave a GI50 [55] of 12.1 µM, a TGI [55] of 25.8 µM and a GI50 [56] of 17.2 µM. It also gave a TGI [56] of 32 µM, a GI50 [57] of 25.1 µM and a TGI [57] of 76.2 µM.
